# Key:
# Assay type in all cases: biochemical
# CDK1:Cyclin-B = molecular target: T1, CDK1:Cyclin-B (Homo sapiens, UniProt P06493); assay: CDK1 Screening Assay; conditions: read-out: Kinase Assay (IC50 uM) CDK1
# T1 construct: purchased New England Biolabs, Beverly, MA 6020; host or cells: insect cells
# Description: (§1) 70 µL of the kinase reaction mixture was dispensed into the well of a streptavidin coated FlashPlate™ (Cat. # SMP103, NEN, Boston, MA). Then 1 µL of test compound stock in 100% DMSO was added to the wells resulting in a final concentration of 1% DMSO in the reaction with a 100 µl final reaction volume. Next, CDK1:Cyclin-B protein was diluted in 50 mM Tris-HCl pH=8.0, 0.1% BSA at a concentration of 1 ng per µL and 30 µl (30ng enzyme per test well) was added to each well to initiate the reaction. The reaction was incubated for one hour at 30°C. At the end of the 1-hour incubation, the reaction was terminated by aspirating the reaction mixture from the plate and washing the wells twice with PBS containing 100 mM EDTA. The histone-H1 biotinylated peptide substrate became immobilized on the Flashplate™ and the incorporation of ^33P-γ-ATP was measured by reading the plate on a scintillation counter. Inhibition of the enzymatic activity of CDK1 was measured by observing a reduced amount of ^33P-γ-ATP incorporated into the immobilized peptide. […]
# [1] = molecular target: T2, EGFR (epidermal growth factor receptor) (Homo sapiens, UniProt P00533); assay: Kinase Selectivity Assay EGF-R; conditions: read-out: Kinase Assay (IC50 uM) EGF-R
# T2 construct: is purified from human A431 cell membranes (Sigma, St. Louis, MO, Cat.# E3641); purchased Sigma, St. Louis, MO E3641; host or cells: human A431 cell membranes (endogenous protein)
# [2] = molecular target: T3, HER2 (human epidermal growth factor receptor-2) (Homo sapiens, UniProt P04626); assay: Kinase Selectivity Assay HER2; conditions: read-out: Kinase Assay (IC50 uM) HER2 Kinase
# T3 construct: begins at amino acid 676 followed by the remainder of the HER2 cytoplasmic domain; polyhistidine (N)
# [3] = molecular target: T4, VEGF-R (vascular endothelial growth factor receptor-2) (Rattus norvegicus, UniProt O08775); assay: VEGF-R Screening Assay; conditions: read-out: Kinase Assay (IC50 uM) VEGF-R
# T4 construct: 6xHis (polyhistidine) (N)
# Description: as §1, with “a 100 µL final reaction” for “a 100 µl final reaction”, “volume. Next, soluble rat tyrosine kinase containing an N-terminal 6XHIS tag was diluted” for “volume. Next, CDK1:Cyclin-B protein was diluted”, “concentration of 5 ng per” for “concentration of 1 ng per”, “and 30 µL (150 ng enzyme per” for “and 30 µl (30ng enzyme per”, “EDTA. The PLC1 biotinylated peptide” for “EDTA. The histone-H1 biotinylated peptide”, “activity of the VEGF-R was measured” for “activity of CDK1 was measured”
# T1 sequence (P06493 whole entry): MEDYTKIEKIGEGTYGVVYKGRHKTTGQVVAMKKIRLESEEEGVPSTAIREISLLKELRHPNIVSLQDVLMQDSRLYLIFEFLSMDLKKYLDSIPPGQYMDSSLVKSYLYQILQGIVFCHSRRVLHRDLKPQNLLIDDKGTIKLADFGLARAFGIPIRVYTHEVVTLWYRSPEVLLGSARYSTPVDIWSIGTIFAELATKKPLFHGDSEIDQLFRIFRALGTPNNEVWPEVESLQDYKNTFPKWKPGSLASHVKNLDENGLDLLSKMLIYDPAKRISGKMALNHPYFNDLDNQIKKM
# T1 sequence (P14635 whole entry partner): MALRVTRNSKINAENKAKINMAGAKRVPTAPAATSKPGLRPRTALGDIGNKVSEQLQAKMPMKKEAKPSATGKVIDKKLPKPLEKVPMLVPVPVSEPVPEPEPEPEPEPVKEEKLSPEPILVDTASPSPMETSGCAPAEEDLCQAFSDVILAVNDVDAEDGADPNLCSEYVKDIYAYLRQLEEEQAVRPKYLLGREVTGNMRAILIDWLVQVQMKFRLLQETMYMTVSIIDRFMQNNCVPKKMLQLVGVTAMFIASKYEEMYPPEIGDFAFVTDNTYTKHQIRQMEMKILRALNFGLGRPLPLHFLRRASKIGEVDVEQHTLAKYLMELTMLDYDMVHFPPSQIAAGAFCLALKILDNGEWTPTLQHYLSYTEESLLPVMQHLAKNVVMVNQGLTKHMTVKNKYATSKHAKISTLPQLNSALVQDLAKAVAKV
# T3 sequence (P04626 676-1255 limits assumed): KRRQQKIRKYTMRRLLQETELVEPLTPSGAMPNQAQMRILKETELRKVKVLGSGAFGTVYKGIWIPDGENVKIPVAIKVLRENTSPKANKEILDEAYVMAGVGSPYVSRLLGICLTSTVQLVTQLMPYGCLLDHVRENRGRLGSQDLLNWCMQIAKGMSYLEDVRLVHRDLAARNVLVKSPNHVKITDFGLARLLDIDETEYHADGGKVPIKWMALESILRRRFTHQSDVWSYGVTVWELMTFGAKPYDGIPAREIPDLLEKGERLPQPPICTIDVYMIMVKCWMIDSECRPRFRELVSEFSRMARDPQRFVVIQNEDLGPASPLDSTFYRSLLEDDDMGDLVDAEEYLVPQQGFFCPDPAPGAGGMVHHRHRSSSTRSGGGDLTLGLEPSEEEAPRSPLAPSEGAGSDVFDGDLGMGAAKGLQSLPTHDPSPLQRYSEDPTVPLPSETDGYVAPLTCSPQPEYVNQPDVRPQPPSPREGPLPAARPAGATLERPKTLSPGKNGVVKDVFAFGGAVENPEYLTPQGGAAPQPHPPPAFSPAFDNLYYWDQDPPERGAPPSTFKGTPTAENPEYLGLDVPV
# T4 sequence (O08775 786-1343): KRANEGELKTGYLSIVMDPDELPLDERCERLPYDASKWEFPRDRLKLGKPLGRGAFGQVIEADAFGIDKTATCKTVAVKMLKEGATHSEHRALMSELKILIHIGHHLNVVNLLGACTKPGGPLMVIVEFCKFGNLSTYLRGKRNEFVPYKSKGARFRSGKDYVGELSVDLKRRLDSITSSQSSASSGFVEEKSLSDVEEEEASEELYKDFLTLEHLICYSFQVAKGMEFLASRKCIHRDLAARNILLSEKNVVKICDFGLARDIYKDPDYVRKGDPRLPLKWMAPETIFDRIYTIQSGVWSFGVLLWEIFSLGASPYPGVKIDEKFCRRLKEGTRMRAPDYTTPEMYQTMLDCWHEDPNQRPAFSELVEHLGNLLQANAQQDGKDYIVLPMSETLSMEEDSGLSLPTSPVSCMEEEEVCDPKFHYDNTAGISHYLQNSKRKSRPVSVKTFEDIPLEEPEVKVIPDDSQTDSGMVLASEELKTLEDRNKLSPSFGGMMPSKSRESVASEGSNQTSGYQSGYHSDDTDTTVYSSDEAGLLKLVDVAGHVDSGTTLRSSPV
# T2 sequence (P00533 25-1210): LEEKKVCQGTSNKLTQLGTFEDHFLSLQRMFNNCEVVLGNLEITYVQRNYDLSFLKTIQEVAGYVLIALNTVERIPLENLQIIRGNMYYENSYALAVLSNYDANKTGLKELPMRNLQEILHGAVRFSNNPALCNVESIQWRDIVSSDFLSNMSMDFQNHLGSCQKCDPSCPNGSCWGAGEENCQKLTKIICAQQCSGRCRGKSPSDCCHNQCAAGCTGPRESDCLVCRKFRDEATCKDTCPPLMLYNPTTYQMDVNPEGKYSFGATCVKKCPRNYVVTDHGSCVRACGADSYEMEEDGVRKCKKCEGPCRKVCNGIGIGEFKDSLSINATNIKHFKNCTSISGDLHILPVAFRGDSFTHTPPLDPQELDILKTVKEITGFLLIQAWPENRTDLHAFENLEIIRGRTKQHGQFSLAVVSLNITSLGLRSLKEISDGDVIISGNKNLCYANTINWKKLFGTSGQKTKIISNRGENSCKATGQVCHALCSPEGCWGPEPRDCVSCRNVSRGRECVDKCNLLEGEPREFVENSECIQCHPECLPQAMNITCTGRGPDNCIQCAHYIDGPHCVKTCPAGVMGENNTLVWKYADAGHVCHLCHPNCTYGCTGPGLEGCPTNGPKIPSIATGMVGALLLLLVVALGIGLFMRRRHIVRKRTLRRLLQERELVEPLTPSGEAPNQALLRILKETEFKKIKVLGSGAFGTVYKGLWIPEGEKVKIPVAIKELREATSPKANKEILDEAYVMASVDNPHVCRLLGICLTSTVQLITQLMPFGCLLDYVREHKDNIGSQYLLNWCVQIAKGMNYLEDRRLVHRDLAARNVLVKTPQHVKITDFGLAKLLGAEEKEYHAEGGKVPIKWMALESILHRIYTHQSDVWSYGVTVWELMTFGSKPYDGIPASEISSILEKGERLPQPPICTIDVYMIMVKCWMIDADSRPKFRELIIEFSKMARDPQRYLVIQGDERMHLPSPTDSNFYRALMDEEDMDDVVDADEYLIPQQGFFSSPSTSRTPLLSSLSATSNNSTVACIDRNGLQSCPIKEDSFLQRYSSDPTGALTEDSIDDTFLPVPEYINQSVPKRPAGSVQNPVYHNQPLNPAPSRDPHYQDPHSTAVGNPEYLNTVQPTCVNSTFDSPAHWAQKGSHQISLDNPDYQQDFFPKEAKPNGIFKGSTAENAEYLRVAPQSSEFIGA
smiles,measurement,setting,value
"CNS(=O)(=O)c1ccc(Nc2nc(N)n(C(=O)c3c(F)ccc(C)c3F)n2)cc1 [Cpd 81, 4-[[5-amino-1-(2,6-difluoro-3-methylbenzoyl)-1H-1,2,4-triazol-3-yl]amino]-N-methyl-benzenesulfonamide]",IC50,CDK1:Cyclin-B,0.018 µM
same,IC50,[1],> 100 µM
same,IC50,[2],1.7 µM
same,IC50,[3],0.482 µM
"Cc1ccc(F)c(C(=O)n2nc(Nc3ccc(S(=O)(=O)NCCN(C)C)cc3)nc2N)c1F [Cpd 105, 4-[[5-amino-1-(2,6-difluoro-3-methylbenzoyl)-1H-1,2,4-triazol-3-yl]amino]-N-[2-(dimethylamino)ethyl]-benzenesulfonamide]",IC50,CDK1:Cyclin-B,0.046 µM
same,IC50,[1],9.6 µM
same,IC50,[2],0.845 µM
same,IC50,[3],0.276 µM
"Cc1cc(C)c(C(=O)n2nc(Nc3ccc(S(=O)(=O)NCCN(C)C)cc3)nc2N)s1 [Cpd 107, 4-[[5-amino-1-[(3,5-dimethyl-2-thienyl)carbonyl]-1H-1,2,4-triazol-3-yl]amino]-N-[2-(dimethylamino)ethyl]-benzenesulfonamide]",IC50,CDK1:Cyclin-B,0.014 µM
same,IC50,[1],0.936 µM
same,IC50,[2],0.03 µM
same,IC50,[3],0.032 µM
"Cc1ccsc1C(=O)n1nc(Nc2ccc(NS(C)(=O)=O)cc2)nc1N [Cpd 109, N-[4-[[5-amino-1-[(3-methyl-2-thienyl)carbonyl]-1H-1,2,4-triazol-3-yl]amino]phenyl]-methanesulfonamide]",IC50,CDK1:Cyclin-B,0.147 µM
same,IC50,[1],> 100 µM
same,IC50,[2],0.17 µM
same,IC50,[3],0.025 µM
"Cc1ccc(F)c(C(=O)n2nc(Nc3ccc(N4CCNC4=O)cc3)nc2N)c1F [Cpd 114, 1-[4-[[5-amino-1-(2,6-difluoro-3-methylbenzoyl)-1H 1,2,4-triazol-3-yl]amino]phenyl]-2-imidazolidinone]",IC50,CDK1:Cyclin-B,0.228 µM
same,IC50,[1],> 100 µM
same,IC50,[2],1.39 µM
same,IC50,[3],0.313 µM
"Nc1nc(Nc2ccc(N3CCNC3=O)cc2)nn1C(=O)c1c(F)cccc1F [Cpd 115, 1-[4-[[5-axnino-1-(2,6-difluorobenzoyl)-1H-1,2,4-triazol-3-yl]amino]phenyl]-2-imidazolidinone]",IC50,CDK1:Cyclin-B,0.313 µM
same,IC50,[1],> 10 µM
same,IC50,[2],1.44 µM
same,IC50,[3],0.467 µM
"Nc1nc(Nc2ccc(N3CCCS3(=O)=O)cc2)nn1C(=O)c1c(F)cccc1F [Cpd 117, 1-(2,6-difluorobenzoyl)-N^3-[4-(1,1-dioxido-2-isothiazolidinyl)phenyl]-1H-1,2,4-triazole-3,5-diamine]",IC50,CDK1:Cyclin-B,0.035 µM
same,IC50,[1],> 100 µM
same,IC50,[2],5.44 µM
"Cc1ccsc1C(=O)n1nc(Nc2ccc(S(=O)(=O)Nc3ccccn3)cc2)nc1N [Cpd 121, 4-[[5-amino-1-[(3-methyl-2-thienyl)carbonyl]-1H-1,2,4-triazol-3-yl]amino]-N-(2-pyridinyl)-benzenesulfonamide]",IC50,CDK1:Cyclin-B,0.099 µM
same,IC50,[1],> 10 µM
same,IC50,[2],0.717 µM
same,IC50,[3],0.027 µM
